Series [1] has as its target T1, pepsin (Sus scrofa, UniProt P00791).
T1 construct: purchased
Briefly: Anti-peptic activity in vitro (bovine serum albumin as substrate). It counts as biochemical. The following applies: for IC50: obtained graphically, read-out: ID50 (50% inhibiting dose) (converted); for inhibition at 125 µg/mL: sample concentration 0.125 mg/ml; for inhibition at 250 µg/mL: sample concentration 0.250 mg/ml; for inhibition at 500 µg/mL: sample concentration 0.500 mg/ml; for inhibition at 1000 µg/mL: sample concentration 1.000 mg/ml. Here is the method:
Anti-peptic activity of the compounds is tested in vitro according to V. K. Thiemer (Arznei-Forsch 22 (6), PP. 1086, 1972), using bovine serum albumin as a substrate and commercially available pepsin.
Also ID50 (50% inhibiting dose) is obtained graphically.

For series [2], the system named is Shay's rat. Briefly: Anti-ulcerative activity, pylorus ligation (Shay's rat). It counts as in vivo. The note with it: perorally, 16 hours after ligation; for inhibition in vivo at 500 mg/kg / inhibition in vivo at 100 mg/kg: Rattus norvegicus, po, 16 h, read-out: % inhibition (ulcer index). Here is the method:
In order to ascertain the anti-ulcerative activity […], Shay's rat (Gastro enterology 26, P. 906) is selected. Rats are fasted for 48 hours and pylorus ligation is carried out under light anesthesia. Drug is given perorally. 16 hours after ligation the animals are sacrificed and the stomach is removed. The induced erosion is measured in area and scored as ulcer index (U.I.). The data are expressed as % inhibition to the control value from the equation described below.

Series [3] in a line: Stability on storage (% residue of the original compound). Type of series: physicochemical. The following applies: for remaining at 96 h: 40° C.; for remaining at 192 h: 60° C.; for remaining at 240 h: 70° C.; for remaining at 288 h: 80° C. The source says:
The data are expressed in % residue of the original compounds after the storage in each condition.

The nature of series [4]: Acute toxicity (Litchfield & Wilcoxon method). The note with it: rat, in vivo. Here is the method:
The acute toxicity of Compound 3 is determined by Litchfield & Wilcoxon method using SD rats.

Counter-ions that a name gives are not always drawn.

T1 sequence (P00791 60-385): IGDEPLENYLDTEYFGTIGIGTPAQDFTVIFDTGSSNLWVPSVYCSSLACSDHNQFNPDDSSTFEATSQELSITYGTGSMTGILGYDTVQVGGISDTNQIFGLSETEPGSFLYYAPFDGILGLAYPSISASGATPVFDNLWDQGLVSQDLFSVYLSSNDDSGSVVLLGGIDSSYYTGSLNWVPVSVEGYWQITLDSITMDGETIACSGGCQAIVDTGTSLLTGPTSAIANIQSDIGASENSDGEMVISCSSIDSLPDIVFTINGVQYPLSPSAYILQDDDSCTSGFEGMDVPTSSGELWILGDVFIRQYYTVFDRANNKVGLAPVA

As to `CCc1cc(S(=O)(=O)O)c2ccc(C(C)C)ccc1-2` [compound 4, Sodium 3-ethyl-6-isopropyl-azulene sulfonate], in series [1], the IC50 is 1830 µM, the inhibition at 125 µg/mL came out at 17.3%, the inhibition at 250 µg/mL is 28.9% and the inhibition at 500 µg/mL is 65.7%. For the same compound, the inhibition at 1000 µg/mL in series [1] was 55.8%. The inhibition in vivo at 500 mg/kg in series [2] turned out to be 100%.
With `Cc1cc(S(=O)(=O)O)c2cccccc1-2` [compound 35, 3-methyl-azulene sulfonic acid aluminum salt], the inhibition in vivo at 100 mg/kg in series [2] (100 mg/kg) came to 16.5%.
Still for that read-out and setting: for `CC(C)=CCC[C@@H](C)c1cc(S(=O)(=O)O)c2cc(C(C)C)cccc1-2` [compound 21, Sodium 7-isopropyl-3-(1'-R-1',5'-dimethyl-4'-hexene)-azulene sulfonate] the value was 14.5%.
`CCCc1cc(S(=O)(=O)O)c2ccccc(OC)c1-2` [compound 26, Sodium 4-methoxy-3-propyl-azulene sulfonate]: in series [2] (100 mg/kg), the inhibition in vivo at 100 mg/kg was found to be 75.6%.
With `CCCCc1cc(S(=O)(=O)O)c2cccccc1-2` [compound 14, Sodium 3-n-butyl-azulene sulfonate], the inhibition in vivo at 100 mg/kg in series [2] (100 mg/kg) came out at 32.7%.
On the same count and under the same terms, the figure for `CCCCc1cc(S(=O)(=O)O)c2cc(C(C)C)cccc1-2` [compound 18, Sodium 7-isopropyl-3-n-butyl-azulene sulfonate] is 17.2%.
For the compound `CCCCCc1cc(S(=O)(=O)O)c2ccccc(OC)c1-2` [compound 28, Sodium 4-methoxy-3-pentyl-azulene sulfonate], in series [2] (100 mg/kg), the inhibition in vivo at 100 mg/kg amounted to 42%.
The same measure, in the same setting: for `CCCCCc1cc(S(=O)(=O)O)c2cc(C(C)C)cccc1-2` [compound 19, Sodium 7-isopropyl-3-n-pentyl-azulene sulfonate] the value was -56.3%.
In the case of `CCCCCCc1cc(S(=O)(=O)O)c2ccccc(OC)c1-2` [compound 29, Sodium 4-methoxy-3-hexyl-azulene sulfonate], the inhibition in vivo at 100 mg/kg in series [2] (100 mg/kg) was found to be 38%.
For `CCc1cc(S(=O)(=O)O)c2cccccc1-2` [compound 36, 3-ethyl-azulene sulfonic acid aluminum salt], the inhibition in vivo at 100 mg/kg in series [2] (100 mg/kg) came out at 28.6%.
Still for that read-out and setting: the figure for `CCCCc1cc(S(=O)(=O)O)c2ccccc(OC)c1-2` [compound 27, Sodium 4-methoxy-3-butyl-azulene sulfonate] is 66.3%.
Take `CCCc1cc(S(=O)(=O)O)c2cc(C(C)C)ccc(OC)c1-2` [compound 32, Sodium 7-isopropyl-4-methoxy-3-propyl-azulene sulfonate]: the inhibition in vivo at 100 mg/kg in series [2] (100 mg/kg) was determined as 44.1%.
`CCc1cc(S(=O)(=O)O)c2cccccc1-2` [compound 2, Sodium 3-ethyl-azulene sulfonate]: in series [2], the inhibition in vivo at 500 mg/kg came to 100%.
For the compound `CC(C)=CCCC(C)c1cc(S(=O)(=O)O)c2cc(C(C)C)cccc1-2` (centres unmarked) [compound 20, Sodium 7-isopropyl-3-(1'-R, S-1',5'-dimethyl-4'-hexene)-azulene sulfonate], the inhibition in vivo at 100 mg/kg in series [2] (100 mg/kg) is 43.8%.
For the compound `CC(C)=CCC[C@H](C)c1cc(S(=O)(=O)O)c2cc(C(C)C)cccc1-2` [compound 22, Sodium 7-isopropyl-3-(1'-S-1',5'-dimethyl-4'-hexene)-azulene sulfonate], the inhibition in vivo at 100 mg/kg in series [2] (100 mg/kg) is -19.5%.
Same read-out and setting: for `CCCc1cc(S(=O)(=O)O)c2cc(C(C)C)cccc1-2` [compound 17, Sodium 7-isopropyl-3-n-propyl-azulene sulfonate] the value was 31.2%; for `CC(C)c1cccc2c(Cc3ccccc3)cc(S(=O)(=O)O)c-2c1` [compound 23, Sodium 7-isopropyl-3-benzyl-azulene sulfonate], 9.8%; for `CCCc1cc(S(=O)(=O)O)c2cccccc1-2` [compound 12, Sodium 3-propyl-azulene sulfonate], 78.5%.
With `CCCCCc1cc(S(=O)(=O)O)c2cc(C(C)C)ccc(OC)c1-2` [compound 34, Sodium 7-isopropyl-4-methoxy-3-pentyl-azulene sulfonate], the inhibition in vivo at 100 mg/kg in series [2] (100 mg/kg) is -14.6%.
Still for that read-out and setting: for `CCc1cc(S(=O)(=O)O)c2ccccc(OC)c1-2` [compound 25, Sodium 4-methoxy-3-ethyl-azulene sulfonate] the value was 75.6%.
In the case of `CC(C)=CCCC(C)c1cc(S(=O)(=O)O)c2cccccc1-2` (centres unmarked) [compound 5, Sodium 3-(1'-R, S-1',5'-dimethyl-4'-hexene) azulene sulfonate], in series [1], the IC50 was 3790 µM, the inhibition at 125 µg/mL was found to be 0.26%, the inhibition at 250 µg/mL is 3.57% and the inhibition at 500 µg/mL was determined as 24.5%. The inhibition at 1000 µg/mL in series [1] came out at 50.4%. In series [2], the inhibition in vivo at 500 mg/kg is 95.5%.
On to `CCCCCc1cc(S(=O)(=O)O)c2cccccc1-2` [compound 15, Sodium 3-n-pentyl-azulene sulfonate], for which, in series [2] (100 mg/kg), the inhibition in vivo at 100 mg/kg worked out at 64.3%.
Consider `CC(C)=CCC[C@H](C)c1cc(S(=O)(=O)O)c2cccccc1-2` [compound 8, Sodium 3-(1'-S-1',5'-dimethyl-4'-hexene)-azulene sulfonate], for which, in series [2], the inhibition in vivo at 500 mg/kg worked out at 69.9%.
With `Cc1cc(S(=O)(=O)O)c2cc(C(C)C)cccc1-2` [compound 37, 7-isopropyl-3-methyl-azulene sulfonic acid aluminum salt], the inhibition in vivo at 100 mg/kg in series [2] (100 mg/kg) was found to be 58.4%.
Turning to `Cc1cc(S(=O)(=O)O)c2cc(C(C)C)cccc1-2` [compound 13, Sodium 3-methyl-7-isopropyl-azulene sulfonate], the “% inhibition (ulcer index)” value in series [2] (100 mg/kg) is recorded as 69.7%.
On to `CCc1cc(S(=O)(=O)O)c2cc(C(C)C)cccc1-2` [compound 38, 7-isopropyl-3-ethyl-azulene sulfonic acid aluminum salt], for which the inhibition in vivo at 100 mg/kg in series [2] (100 mg/kg) was determined as 40.3%.
For `CCc1cc(S(=O)(=O)O)c2cc(C(C)C)ccc(OC)c1-2` [compound 31, Sodium 7-isopropyl-4-methoxy-3-ethyl-azulene sulfonate], the inhibition in vivo at 100 mg/kg in series [2] (100 mg/kg) amounted to 67.6%.
With `Cc1cc(S(=O)(=O)O)c2c(C)ccc(C(C)C)cc1-2` [GAS, sodium guaiazulene-3-sulfonate, reference compound], in series [1], the IC50 is 1290 µM, the inhibition at 125 µg/mL worked out at 14.6%, the inhibition at 250 µg/mL stood at 50.4% and the inhibition at 500 µg/mL was found to be 58.6%. Also, the inhibition at 1000 µg/mL in series [1] was found to be 75.1%. In series [3], this compound yielded an amount remaining at 96 h of 100%, a share remaining at 192 h of 51.3%, an amount remaining at 240 h of 9.3% and a fraction remaining at 288 h of 1.5%.
On to `CCCCc1cc(S(=O)(=O)O)c2cc(C(C)C)ccc(OC)c1-2` [compound 33, Sodium 7-isopropyl-4-methoxy-3-butyl-azulene sulfonate], for which, in series [2] (100 mg/kg), the inhibition in vivo at 100 mg/kg was 64.8%.
Consider `CC(C)c1cccc2c(S(=O)(=O)O)ccc-2c1` [compound 16, Sodium 5-isopropyl-azulene sulfonate], for which the inhibition in vivo at 100 mg/kg in series [2] (100 mg/kg) worked out at 62%.
For `COc1ccc(C(C)C)cc2c(S(=O)(=O)O)cc(C)c1-2` [compound 30, Sodium 7-isopropyl-4-methoxy-3-methyl-azulene sulfonate], in series [2] (100 mg/kg), the inhibition in vivo at 100 mg/kg was found to be 58.7%.
Regarding `COc1ccccc2c(S(=O)(=O)O)cc(C)c1-2` [compound 24, Sodium 4-methoxy-3-methyl-azulene sulfonate], the inhibition in vivo at 100 mg/kg in series [2] (100 mg/kg) was determined as 63.4%.
On to `CCc1cc(S(=O)(=O)O)c2cc(C(C)C)cccc1-2` [compound 3, Sodium 3-ethyl-7-isopropyl-azulene sulfonate], for which, in series [1], the IC50 is 1070 µM, the inhibition at 125 µg/mL was found to be 17.3%, the inhibition at 250 µg/mL turned out to be 47.6% and the inhibition at 500 µg/mL worked out at 63.6%. In series [1], the inhibition at 1000 µg/mL was determined as 97.1%. Also, the inhibition in vivo at 500 mg/kg in series [2] was 100%. This compound had an LD50 in series [4] (ip, I.P., female, 95% confidence limits) of 180 mg/kg. The LD50 in series [4] (ip, I.P., male, 95% confidence limits) was found to be 165 mg/kg. Also, the LD50 in series [4] (iv, I.V., female, 95% confidence limits) came out at 153 mg/kg. This compound showed a 50% lethal dose (LD50) in series [4] (iv, I.V., male) of 130 mg/kg. The compound also returned an LD50 in series [4] (po, P.O., female, 95% confidence limits) of 1200 mg/kg. The median lethal dose (LD50) in series [4] (po, P.O., male, 95% confidence limits) stood at 1000 mg/kg. In series [3], the fraction remaining at 96 h worked out at 100%, the fraction remaining at 192 h came to 100%, the amount remaining at 240 h is 100% and the amount remaining at 288 h amounted to 100%. Moreover, in series [3] (compared with sodium guaiazulene sulfonate), the “stability, in words” value was “greatly improved”.
For the compound `Cc1cc(S(=O)(=O)O)c2cccccc1-2` [compound 1, Sodium 3-methyl-azulene sulfonate], in series [2], the inhibition in vivo at 500 mg/kg amounted to 52.4%.

The term inhibition denotes the percentage by which the read-out fell short of the control. In general, share remaining refers to the share of the starting amount still present when the sample was taken. Low readings indicate more turnover, high ones less turnover. By LD50 is commonly meant the dose expected to kill half of the subjects tested.

Source of the values: US4595694A, “Azulene derivatives, processes of their synthesis and their uses as anti-ulcerative and anti-inflammatory agents” (Kotobuki Seiyaku Co. Ltd., priority 1983, dated 1986).
